This is an account of results in patent publication US20170319570A1, “Treatment of Multiple Sclerosis With Combination of Laquinimod and Dimethyl Fumarate” (Teva Pharmaceutical Industries, Ltd., priority 2012, published 2017).

Data set [1] relates to MOG-induced EAE. Kind of data set: MOG-induced EAE, laquinimod alone or with add on DMF (Example 1A). Particulars: oral QD. The data set is classed as in vivo, mouse.
Data set [2] has as its system MOG peptide induced EAE. The conditions noted are these: cited from earlier work.
Data set [3] deals with RRMS patients. The conditions noted are these: Phase 2B trial; cited from earlier work.
Data set [4] has as its system MOG induced EAE. Kind of data set: MOG-induced EAE, laquinimod in combination with DMF (Example 1B). The data set is classed as in vivo, mouse. The conditions noted are these: Day 1 to 30, dead or moribund/total.
The conditions of data set [5]: in vivo; cited from earlier work.

As for `COC(=O)/C=C/C(=O)OC` [DMF, Dimethyl (E)-but-2-Enedioate], the “effectiveness on disease severity” value in data set [1] is “moderately effective”. For the same compound, the “plasma levels of IL-10” value in data set [2] (MOG peptide induced EAE) is given as “increased”. In data set [2] (during MOG peptide induced EAE), the glial inflammation result was “reduced”. Moreover, in data set [3], the annualized relapse rate result is “non-significant decrease”; the “new gadolinium enhancing lesions, T1 and T2 lesions” value is listed as “significant decreases”.
Take `CCN(C(=O)c1c(O)c2c(Cl)cccc2n(C)c1=O)c1ccccc1` [Laquinimod]: the Mortality in data set [4] (Group 2: laquinimod 5 mg/kg/day gavage qd), in data set [4] (Group 3: laquinimod 10 mg/kg/day gavage qd) and in data set [4] (Group 4: laquinimod 25 mg/kg/day gavage qd) was 0/15 each time. In data set [1] (0.06 mg/kg laquinimod alone), the “effectiveness on disease severity” value is reported as “moderately effective”. In addition, in data set [5], the oral bioavailability entry is given as “high”.
